Reference: patent US20170008928A1, “NOVEL PEPTIDES AND PEPTIDE DERIVATIVES AND USES THEREOF” (Novo Nordisk A/S, priority 2015, published 2017)
Read-outs that look alike come from different tables or passages of the source. Starred links: 1 amine or outer side, 2 acyl side, 3 side chain; linkers in the order of their positions; H or OH if unused. Non-standard residues stand in square brackets, D forms with d. Residues, ends and D or L forms follow the SMILES beside them. *: point of attachment. Phe(4-CH2SO3H) = N[C@@H](Cc1ccc(CS(=O)(=O)O)cc1)C(=O)O; C18 diacid = O=C(O)CCCCCCCCCCCCCCCCC(=O)*; γGlu = O=C(O)[C@H](CCC(=O)[*:2])N[*:1]; NMeF = CN[C@@H](Cc1ccccc1)C(=O)O; dNMeD = CN[C@H](CC(=O)O)C(=O)O; Nle = CCCC[C@H](N)C(=O)O; AEEA = NCCOCCOCC(=O)O

Legend:
[1] = Chemical stability compared to CCK-8s, 8 mM phosphate pH 7.4, RP-UHPLC; format: physicochemical; conditions: after two weeks at 37° C.
Procedure: The resulting samples were stored in HPLC vials at 5° C. and 37° C. for 2 weeks. The samples were analysed in the beginning of the experiment (t=0), after one week and after two weeks by RP-UHPLC with a mobile phase containing phosphate and with a gradient of acetonitrile. UV detection at 215 nm was used. Samples after one week and two weeks were analysed twice. The calculations were done as described above, and the results are summarised in Table 7 (average of two determinations).

[2] = Plasma exposure after the last dose in DIO mini-pigs; format: in vivo, Göttingen mini-pigs; conditions: for AUC(0-t): Göttingen, minipig, plasma, sc, read-out: AUCexposure (0-24 h) after last dose
Procedure: The CCK derivative was dissolved in the following buffer: 8 mM phosphate, 184 mM propylene glycol, 58 mM phenol, pH 7.4 concentrations ranging from 2000-10000 nmol/mL corresponding to dose volumes ranging from 0.00075-0.001 mL/kg. Liraglutide was dissolved in 8 mM phosphate, 184 mM propylenglycol, 58 mM phenol, pH 8.15 (1600 nmol/mL), dose volume was 0.001 mL/kg and this formulation also served as a vehicle for all 3 treatment groups. Animals were dosed subcutaneously once daily with vehicle, CCK derivative, liraglutide, or liraglutide in combination with the CCK derivative (given as two separate injections in each side of the neck). After the last dose blood samples were obtained in EDTA coated tubes at selected time points for up to 480 hours after dosing. Blood was sampled through central-venous catheters implanted under general anaesthesia after 11 weeks of treatment.
The resulting plasma was pipetted into Micronic tubes on dry ice, and kept at −20° C. until analysed for plasma exposure of liraglutide and the CCK derivative. Plasma content of the CCK derivative was measured using LC-MS method II, as described in Example 93. Plasma content of liraglutide was measured using LOCI (Luminescence Oxygen Channeling Immunoasssay). LOCI is generally described for the determination of insulin by Poulsen and Jensen in Journal of Biomolecular Screening 2007, vol. 12, p. 240-247. The donor beads were coated with streptavidin, while acceptor beads were conjugated with a monoclonal antibody recognising a C-terminal epitope of the peptide. Another monoclonal antibody, specific for the N-terminus, was biotinylated. The three reactants were combined with the analyte and formed a two-sited immuno-complex. Illumination of the complex released singlet oxygen atoms from the donor beads, which were channelled into the acceptor beads and triggered chemiluminescence which was measured in an Envision plate reader. The amount of light was proportional to the concentration of the compound.

[3] = Chemical stability in 50 mM phosphate buffer pH 7.4, RP-UPLC; format: physicochemical
Procedure: The purpose of this assay is to assess the chemical stability of the derivatives of the invention in aqueous solutions. The chemical stability was investigated by RP-UPLC separation and UV detection.
Lyophilised samples of the derivative of Example 3 were dissolved in a 50 mM sodium phosphate buffer pH 7.4 containing 70 mM NaCl and 0.05 v/v % polysorbate 80, at a concentration of 1 mg/ml of the derivative (for the Example 3 derivative 1 mg/ml equates 0.54 mM). If necessary, pH was adjusted to 7.4. […]
RP-UPLC analysis was performed using a Waters Acquity system with the following parameters:
The following UPLC gradient was used: […]
Purity of a compound is defined as the area percentage of the compound peak in relation to the total area of all integrated peaks in the chromatogram and is calculated by the software of the apparatus. Absolute purity loss (in percentage points, pp) is determined as the difference in purity between the start sample and the sample incubated for a certain time at a certain temperature. Relative purity loss (in %) is the ratio of absolute purity loss to the purity determined in the start sample.

CCCC[C@H](NC(=O)[C@H](Cc1ccc(CS(=O)(=O)O)cc1)NC(=O)[C@H](CC(=O)O)NC(=O)COCCOCCNC(=O)COCCOCCNC(=O)CC[C@H](NC(=O)CCCCCCCCCCCCCCCCC(=O)O)C(=O)O)C(=O)NCC(=O)N[C@@H](Cc1c[nH]c2ccccc12)C(=O)N[C@@H](CCCC)C(=O)N(C)[C@H](CC(=O)O)C(=O)N(C)[C@@H](Cc1ccccc1)C(N)=O [Example 3, 2-[2-[2-[[2-[2-[2-[[(4S)-4-Carboxy-4-(17-carboxyheptadecanoylamino)butanoyl]amino]ethoxy]ethoxy]acetyl]amino]ethoxy]ethoxy]acetyl-Asp-Phe(4-sulfomethyl)-Nle-Gly-Trp-Nle-DMeAsp-MePhe-amide] ({C18 diacid-γGlu-AEEA-AEEA}-D[Phe(4-CH2SO3H)][Nle]GW[Nle][dNMeD][NMeF]-NH2)
stability higher than the stability of CCK-8s [1]: about 50% | AUC(0-t) ([2]; CCK derivative high dose group (10 nmol/kg)): 27.1 µM·h | AUC(0-t) ([2]; CCK derivative low dose group): 4.2 µM·h | AUCexposure (0-24 h) after last dose, CCK derivative ([2]; combination group, CCK derivative […] on top of liraglutide): derivative: 3332000 pM*h | chemical stability, overall ([3]; all three temperatures tested (5, 25, 37° C.), up to at least 6 weeks): very stable | short term chemical stability ([3]; same buffer, 25° C., three days, 25 μM, 100 μM and 500 μM): virtually no degradation
